Several values for one entry are separate records, joined by “and”; a condition that tells them apart may be missing. Identical values can stand only once.
Tests used:
A549/K1.5 cells [1] = test: XTT cytotoxicity assay with and without illumination; type: cell-based, Human
Protocol: Human non-small cell lung cancer A549 cells and their ABCG2-overexpressing MDR (multi-drug resistant) A549/K1.5 sub-line; ovarian carcinoma cell line 2008 and its stable MRP1-transfectant 2008/MRP1; and human non-small lung cancer cell line SW1573 and its ABCB1-overexpressing subline SW1573/2R160) were maintained in RPMI-1640 medium supplemented with 10% fetal bovine serum, 2 mM glutamine, 100 μg/ml penicillin and streptomycin (Biological Industries, Beth-Haemek, Israel) in a humid atmosphere containing 5% CO2 at 37° C.
(§7) Parental cells and their MDR (multi-drug resistant) sub-lines were seeded in 96-well plates (2×10^4 cells/well in 90 μl growth medium/well). […] Following incubation for 2 hours, the drug-containing medium was replaced by drug-free medium. The cells were then placed on an illuminator plate (Model 460, thin line series, S&S X-Ray Products Inc., Brooklyn, N.Y.) for 1 hour, thereby achieving a light dose of 5 J/cm^2 white light. After illumination, plates were further incubated for an additional 24 hours.
Cell viability was determined using an XTT (2,3-bis-(2-methoxy-4-nitro-5-sulfophenyl)-2H-tetrazolium-5-carboxanilide) Cell Proliferation Kit (Biological Industries). The drug concentrations required to inhibit cell growth by 50% (i.e., IC50 values) were determined from the cell survival curves in the absence and in the presence of illumination. Results are presented as mean values of at least three independent experiments.

A549 cells [2] = test: XTT cytotoxicity of C-1330 after chloroquine treatment, with and without illumination; type: cell-based, Human
Protocol: A549 cells were seeded in 96-well plates at a concentration of 500 cells/well for the 48 hour chloroquine treatment, or at a concentration of 1000 cells/well for the 24 hour chloroquine treatment, in a total volume of 100 μl of medium per well. Following an overnight incubation, chloroquine was then added at the indicated concentrations for 24 or 48 hours. Lysosomes were then stained with LysoTracker® Red, detected by fluorescent imaging as described hereinabove, and quantified using EZQuant software. […]

A549 cells [3] = test: Live cell fluorescent imaging (lysosomal localization and photodestruction); type: cell-based, Human; details: 470 nm microscope illumination
Protocol: (§1) Lysosomes and mitochondria were stained by incubating the cells 100 nM LysoTracker® Red or 100 nM MitoTracker® Red, respectively, for 1 hour. For subcellular localization of C-1330, cells were also stained with 10 μM C-1330 for 30 minutes.
(§2) Nuclear staining was performed prior to fluorescence imaging by replacing the growth medium with medium containing 2 μg/ml Hoechst 33342, followed by incubation for 10 minutes. Prior to nuclear staining, A549/K1.5 cells were incubated for 1 hour with 10 μM fumitremorgin C (FTC) to prevent efflux of Hoechst 33342 by ABCG2.
(§3) Live cell fluorescent imaging was performed using an Axiovert 200 inverted fluorescence microscope (Carl Zeiss) equipped with a digital camera. […] Light intensity was maintained at 12.5% of the maximum. The magnification used was ×630.
(§4) Cells were pre-incubated with 10 mM ammonium chloride for 30 minutes or with 1 μM bafilomycin A1 for 60 minutes, prior to being incubated with 10 μM C-1330 for 30 minutes as described hereinabove. Ammonium chloride and bafilomycin A1 remained present during the incubation with C-1330.
Monolayers of A549 cells were grown in glass-bottom plates and were washed in growth medium. The medium was then replaced with a special isotonic balanced salt solution lacking or containing either N,N′-dimethylthiourea (DMTU), a potent hydroxyl radical and hydrogen peroxide scavenger, L-histidine, a hydroxyl radical and singlet oxygen radical (^1O2) scavenger, or sodium azide, a singlet oxygen radical scavenger. The salt solution consisted of 10 mM HEPES pH 7.4, 120 mM NaCl, 5 mM KCl, 1 mM CaCl2, 1 mM MgCl2, and 25 mM glucose. After incubation for 1 hour, C-1330 was added to the aforementioned solution buffer for an additional 30 minutes, during which the scavengers remained present, in order to load lysosomes. The cells were then examined by fluorescent imaging as described hereinabove.

A549/K1.5 cells [4] = test: as above; type: cell-based, Human; details: A549/K1.5; 470 nm microscope illumination
Protocol: as §1, §2, §3, §4
A549/K1.5 cells were incubated with 10 μM doxorubicin for 30 minutes, and then observed and illuminated (at 470 nm) by live cell fluorescent imaging as described in the Materials and Methods section. Upon illumination, the cells were photographed every second, in order to observe changes in the cells over time.

A549 cells [5] = test: Crystal violet staining of illuminated monolayers; type: cell-based, Human; details: 10 μM 30 min, 470 nm 1 minute, 48 hours after illumination
Protocol: (§5) A549 and A549/K1.5 cells were grown to full confluence on glass-bottom plates and loaded with 10 μM C-1330 for 30 minutes. Before illumination, the spent medium was replaced by fresh medium. Using the inverted fluorescence microscope as a source of illumination, each plate was illuminated for 1 minute at a wavelength of 470 nm, at an intensity of approximately 3 W/m^2. Cells were then incubated at 37° C. for an additional 48 hours. The cells were then washed twice with PBS, fixed with 70% methanol for 10 minutes and stained with a diluted dye solution (1:5) of crystal violet. Stained monolayer cells were then washed three times with double distilled water. Crystal violet-stained cells were then examined and photographed using an M80 binocular at a x8 magnification (Leica Microsystems GmbH), and by an inverted Cell-Observer microscope, at a x1000 magnification (Carl Zeiss).
(§6) Monolayers of A549 and A549/K1.5 cells were pulse-incubated with C-1330 for 30 minutes, washed with drug-free medium, subjected to illumination for 1 minute with a fluorescence microscope, and incubated for 48 additional hours in growth medium. The confluent monolayers were then washed with PBS, fixed with methanol, and stained with crystal violet. The monolayers were then examined by light microscopy.

A549/K1.5 cells [6] = test: Crystal violet staining of illuminated monolayers; type: cell-based, Human; details: 10 μM 30 min, 470 nm 1 minute, 48 hours after illumination
Protocol: as §5, §6

A549 cells [7] = test: Texas Red-phalloidin staining of F-actin; type: cell-based, Human; details: 10 μM 30 minutes
Protocol: A549 cells were grown on coverslips in 24-well plates until confluence was reached. Cells were then incubated with 10 μM C-1330 for 30 minutes and then exposed to light for 1 minute, in order to achieve lysosomal photodestruction. Control cells were loaded with C-1330 but were not illuminated. C1330-loaded cells were ether fixed and stained with Texas Red®-X Phalloidin (Life Technologies) with no illumination or stained with Texas Red®-X Phalloidin 2 hours after illumination. Cells were then washed twice with PBS and fixed by adding 4% formaldehyde for 10 minutes at room temperature. Following two additional washes with PBS, 0.1% Triton X-100 was added for 10 minutes, and then washed twice to remove the Triton X-100. Blocking was then achieved using a solution of 20% skim milk and 2.5% fetal calf serum for 20 minutes. At this stage, 5 μl of Texas Red®-X Phalloidin stock solution was added to 0.2 ml of PBS and the samples were incubated for 20 minutes while being protected from light. The samples were finally rinsed to remove excess Texas Red®-X Phalloidin. Coverslips were removed gently from wells and attached onto slides using Fluoromount-G. Fluorescent cells were analyzed by a fluorescence microscope, using an excitation wavelength of 545 nm and an emission wavelength of 605 nm.

A549 cells [8] = test: XTT cytotoxicity of C-1330 after chloroquine treatment, with and without illumination; type: cell-based, Human; details: 24 hours
A549 cells [9] = test: XTT cytotoxicity assay with and without illumination
Protocol: as §7
Cell viability was determined using an XTT (2,3-bis-(2-methoxy-4-nitro-5-sulfophenyl)-2H-tetrazolium-5-carboxanilide) Cell Proliferation Kit (Biological Industries). […] Results are presented as mean values of at least three independent experiments.

[10] = chloroquine 20 (μM), 24 hours, no illumination
[11] = chloroquine 20 (μM), 48 hours, no illumination

CCN(CC)CCNc1ccc2ncn3c4ccc(OC)cc4c(=O)c1c23 [C-1330]
difference in survival of illuminated and non-illuminated cells (A549/K1.5 cells [1]; A549/K1.5, 3 μM): 59%
cell death without illumination at the indicated concentration (LD10) (A549/K1.5 cells [1]; A549/K1.5, FIG. 9B dotted line, no illumination): approximately 10%
cell death with illumination at the indicated concentration (LD70) (A549/K1.5 cells [1]; A549/K1.5, FIG. 9B dotted line, white light): ~70%
Fold sensitization (A549/K1.5 cells [1]; A549/K1.5, control vs illumination): 14
LD50 Control (A549/K1.5 cells [1]; A549/K1.5, no illumination): 12.269 ± 1.119 µM
Survival at 3000 nM Control (A549/K1.5 cells [1]; A549/K1.5, no illumination): 87 ± 4%
LD50 Illumination (A549/K1.5 cells [1]; A549/K1.5, white light 1 hour (5 J/cm^2)): 850 ± 23 nM
Survival at 3000 nM Illumination (A549/K1.5 cells [1]; A549/K1.5, white light illumination): 28 ± 1%
resistance of A549/K1.5 cells compared to parental A549 cells (A549/K1.5 cells [1]; no illumination): 2.5 fold
cell death without illumination at the indicated concentration (LD10) (A549 cells [2]; 20 μM chloroquine 48 hours, FIG. 12C dotted line, no illumination): approximately 10%
cell death with illumination at the indicated concentration (LD90) (A549 cells [2]; 20 μM chloroquine 48 hours, FIG. 12C dotted line, white light): ~90%
Fold sensitization (A549 cells [2]; chloroquine 20 (nM), 24 hours): 23
Fold sensitization (A549 cells [2]; chloroquine 20 (nM), 48 hours): 49
C-1330 LD50 Illumination (A549 cells [2]; chloroquine 20 (μM), 24 hours): 0.648 ± 0.065 µM
Survival at 3000 nM Illumination (A549 cells [2]; chloroquine 20 (μM), 24 hours): 29% and 29 ± 07%
C-1330 LD50 Control (A549 cells [2]; [10]): 15.222 ± 0.378 µM
Survival at 3000 nM Control (A549 cells [2]; [10]): 79% and 79 ± 5%
C-1330 LD50 Illumination (A549 cells [2]; chloroquine 20 (μM), 48 hours): 0.7 ± 0.043 µM
Survival at 3000 nM Illumination (A549 cells [2]; chloroquine 20 (μM), 48 hours): 9% and 9 ± 3%
C-1330 LD50 Control (A549 cells [2]; [11]): 34.137 ± 3.084 µM
Survival at 3000 nM Control (A549 cells [2]; [11]): 88% and 88 ± 8%
Fold sensitization (A549 cells [2]; chloroquine 50 (nM), 24 hours): 31
Survival at 3000 nM Illumination (A549 cells [2]; chloroquine 50 (μM), 24 hours): 23 ± 2%
C-1330 LD50 Control (A549 cells [2]; chloroquine 50 (μM), 24 hours, no illumination): 19.609 ± 2.454 µM
Fold sensitization (A549 cells [2]; chloroquine 100 (nM), 24 hours): 30
Survival at 3000 nM Illumination (A549 cells [2]; chloroquine 100 (μM), 24 hours): 19 ± 3%
Survival at 3000 nM Control (A549 cells [2]; chloroquine 100 (μM), 24 hours, no illumination): 90 ± 9%
lysosomal photodestruction upon blue light illumination (A549 cells [3]): continuous disappearance of lysosomes
lysosomal photodestruction upon blue light illumination (A549/K1.5 cells [4]): continuous disappearance of lysosomes
appearance of illuminated area of monolayer (crystal violet) (A549 cells [5]): region of lysed cells
appearance of illuminated area of monolayer (crystal violet) (A549/K1.5 cells [6]): region of lysed cells
actin cytoskeleton after illumination (A549 cells [7]; 2 hours after illumination): devoid of cytoplasmic content and actin cytoskeleton
actin cytoskeleton without illumination (A549 cells [7]; no illumination): retained a normal actin cytoskeleton
C-1330 LD50 Illumination (A549 cells [8]; chloroquine 50 (μM)): 0.637 ± 0.174 µM
Survival at 3000 nM Control (A549 cells [8]; chloroquine 50 (μM), no illumination): 92 ± 7%
C-1330 LD50 Illumination (A549 cells [8]; chloroquine 100 (μM)): 0.498 ± 0.064 µM
C-1330 LD50 Control (A549 cells [8]; chloroquine 100 (μM), no illumination): 15.048 ± 2.886 µM
difference in survival of illuminated and non-illuminated cells (A549 cells [9]; 3 μM): 29%
Fold sensitization (A549 cells [9]; control vs illumination): 6
Survival at 3000 nM Control (A549 cells [9]; no illumination): 72% and 72 ± 5%
LD50 Control (A549 cells [9]; no illumination, 2 h drug, XTT 24 h later): 5.023 ± 0.716 µM
LD50 Illumination (A549 cells [9]; white light 1 hour (5 J/cm^2)): 842 ± 208 nM
Survival at 3000 nM Illumination (A549 cells [9]; white light illumination): 43% and 43 ± 6%

Reference: patent publication US8630703B2, “Treatment utilizing hydrophobic weak bases chemotherapeutic agents and illumination” (Technion Research & Development Foundation Limited, priority 2011, dated 2014)
